Measurements reported in patent US20120309683A1, “USE OF […] ADENYLATE CYCLASE-ACTIVATING POLYPEPTIDE (PACAP) AND PACAP ANALOGS AS ADJUNCTIVE TREATMENTS WITH INHIBITORS OF CALCINEURIN OR INHIBITORS OF THE […] TARGET OF RAPAMYCIN (mTOR) COMPLEXES” (The Administrators of the Tulane Educational Fund, priority 2010, published 2012).
Read-outs that look alike come from different tables or passages of the source. Where no end group is shown, it is not given here. [ ]: non-standard residue; d: D form. The star is where a group is joined. Palmitoyl = CCCCCCCCCCCCCCCC(=O)*; Aib = CC(C)(N)C(=O)O

What was measured:
[1] = test system: HK-2 human kidney cells (human renal proximal tubule epithelial cells); assay: Tacrolimus-induced loss of viability of HK-2 cells, lactate dehydrogenase in intact cells; assay type: cell-based; settings: for loss of viable human renal proximal tubule epithelial cells caused by tacrolimus: various concentrations of peptide added to medium
Procedure: The HK-2 human kidney cells were cultured in Keratinocyte-Serum Free Medium supplemented with recombinant epidermal growth factor and bovine pituitary extract. […] Each value represents the mean plus/minus the standard error of five determinations. **p<0.01 and *p<0.05 compared to the cells treated only with tacrolimus.

[2] = test system: rat; settings: 15-minute occlusion, continuous infusion; cited from earlier work
[3] = test system: rat; settings: 48 hours, cited from earlier work
[4] = test system: Jurkat human T-lymphocyte cells; assay: Mitogen-stimulated secretion of interleukin-2 from Jurkat cells; assay type: cell-based; settings: PHA and PMA stimulated Jurkat cells; for mitogen-induced secretion of interleukin-2 into the medium: 24 hours
Procedure: The Jurkat human T-lymphocyte cells were cultured in RPMI 1640 medium supplemented with 10% heat-inactivated fetal calf serum. The Jurkat cells were stimulated with the mitogens phytohemagglutinin (PHA, 1 mg/ml) and phorbol 12-myristate 13-acetate (PMA, 50 ng/ml). […] Each value represents the mean plus/minus the standard error of eight determinations. **p<0.01 and *p<0.05 compared to the cells treated only with the mitogens.
(§1) However, when Jurkat cells were stimulated with PHA and PMA, large quantities of interleukin-2 could be detected in the medium (FIG. 9). […] At the highest dose (10^−5 M), PACAP38 inhibited the proliferation of the Jurkat cells by more than 50%.

[5] = test system: light-chain immunoglobulin-secreting human multiple myeloma cells; assay: Proliferation of multiple myeloma cells with sirolimus, bromodeoxyuridine incorporation; assay type: cell-based; settings: for rate of proliferation of the human B-lymphocyte cell line: multiple myeloma cells with sirolimus, 10^−9 M to 10^−6 M peptide, 24-hour incubation
Procedure: The light-chain immunoglobulin-secreting human multiple myeloma cells were cultured in RPMI 1640 medium supplemented with 10% non-inactivated fetal bovine serum and 0.05 mM 2-mercaptoethanol. The effects of PACAP38, PACAP27 and PACAP analogs on myeloma cell proliferation were assessed by determining incorporation of bromodeoxyuridine into DNA during cell division. The number of myeloma cells approximately doubled during the 24-hour incubation period in the absence of treatment with PACAP-like peptides. Four different concentrations, ranging from 10^−9 M to 10^−6 M, were tested for PACAP38, PACAP27 and each of the PACAP analogs. Each value represents the mean plus/minus the standard error of four determinations. **p<0.01 and *p<0.05 compared to the cells treated only with sirolimus.
The effects of PACAP38, PACAP27 and PACAP analogs on human cell proliferation were assessed by determining incorporation of bromodeoxyuridine into DNA during cell division. […] At the highest dose (10^−6 M), PACAP38 inhibited the proliferation by more than 50%.

[6] = test system: HK-2 human kidney cells; assay: Morphology of HK-2 cells, phase-contrast microscopy; assay type: cell-based; settings: 50 μM cyclosporine A and 10^−8 M PACAP38 for 48 hours
Procedure: The cells were visualized with an inverted phase-contrast microscope. The HK-2 human kidney cells were grown to 80% confluence. (A) The morphology of the HK-2 cells grown in normal medium.

[7] = test system: HK-2 human kidney cells (human renal proximal tubule epithelial cells); assay: Sirolimus-induced apoptotic cell death of HK-2 cells, histone-associated DNA fragmentation; assay type: cell-based
Procedure: The HK-2 human kidney cells were cultured in Keratinocyte-Serum Free Medium supplemented with recombinant epidermal growth factor and bovine pituitary extract. The dose-dependent inhibitory effect of PACAP38 on apoptotic cell death was assessed by the quantitative determination of cytoplasmic histone-associated DNA-fragmentation (mono- and oligonucleosomes) after exposure to 100 ng/ml of sirolimus for 24 hours. Each value represents the mean plus/minus the standard error of eight determinations. **p<0.01 and *p<0.05 compared to the cells treated only with sirolimus.

[8] = test system: HK-2 human kidney cells (human renal proximal tubule epithelial cells); assay: Cyclosporine A-induced injury (cytotoxicity) of HK-2 cells, lactate dehydrogenase in culture medium; assay type: cell-based; settings: PACAP38 10^−8 M added to medium of cyclosporine A-treated HK-2 cells
Procedure: (§2) The effects of PACAP38 at a concentration of 10^−8 M on cell injury were assessed by determining the activity of the cytoplasmic enzyme lactate dehydrogenase in the culture medium. Each value represents the mean plus/minus the standard error of four determinations. **p<0.01 compared to the cells treated only with cyclosporine A.

[9] = test system: human renal proximal tubule epithelial cells; assay: Methotrexate-induced apoptotic cell death of human renal proximal tubule epithelial cells; assay type: cell-based; settings: methotrexate for 24 hours
Procedure: (§3) The inhibitory effects of PACAP38 on apoptotic cell death were assessed by the quantitative determination of cytoplasmic histone-associated DNA-fragmentation (mono- and oligonucleosomes) after exposure to methotrexate for 24 hours. Each value represents the mean plus/minus the standard deviation of six determinations. **p<0.01 and *p<0.05 compared to the cells treated only with methotrexate.
(§4) An ideal cytoprotective adjunctive agent should have the same effect as the main therapeutic agent against the intended therapeutic target, but protect the patient against the deleterious “off-target” effects of the main therapeutic. […] Furthermore, these experiments indicate that PACAP-like compounds would be beneficial as monotherapeutics for the treatment of leukemias. These experiments also indicate that combination therapy with PACAP-like compounds plus azathioprine or 6-mercaptopurine would result in an increased therapeutic index compared to azathioprine or 6-mercaptopurine, respectively, alone.

[10] = test system: Male C57BL/6 mice; assay: Cyclosporine A-induced nephrotoxicity in mice (serum creatinine, kidney TGF-β1); assay type: in vivo; settings: cyclosporine A 5 mg/kg i.p., 20 μg PACAP38 i.p. 1 h before, 24 and 48 h
Procedure: The control group of mice was injected intraperitoneally with the same volume of saline as for the injections of cyclosporine A and PACAP38 on the same schedule. The mice were euthanized 24 hours after the final injection of PACAP38.
Male C57BL/6 mice were given a single intraperitoneal injection of 5 mg/kg of cyclosporine A. Twenty micrograms of PACAP38 were given intraperitoneally 1 hour before the injection of cyclosporine A and additional doses were given at 24 and 48 hours after the initial dose. The control group of mice was injected intraperitoneally with the same volume of saline as for the injections of cyclosporine A and PACAP38 on the same schedule. The mice were euthanized 24 hours after the final injection of PACAP38.

[11] = test system: Jurkat human T-lymphocyte cells; assay: Proliferation of Jurkat cells, bromodeoxyuridine incorporation; assay type: cell-based; settings: for rate of proliferation of the human T-lymphocyte cell line: mitogen-stimulated Jurkat cells, 24 hours
Procedure: The Jurkat human T-lymphocyte cells were cultured in RPMI 1640 medium supplemented with 10% heat-inactivated fetal calf serum. The Jurkat cells were stimulated with mitogens (1 mg/ml of PHA and 50 ng/ml of PMA).
as §1

[12] = test system: human renal proximal tubule epithelial cells (HK-2); assay: TGF-β1 secretion by HK-2 cells treated with cyclosporine A; assay type: cell-based; settings: PACAP38 10^−8 M, cyclosporine A-treated HK-2 cells
Procedure: as §2, with “the production of TGF-β1” for “cell injury”, “concentration” for “activity”, “TGF-β1” for “the cytoplasmic enzyme lactate dehydrogenase”, “six” for “four”

[13] = test system: human T-lymphocyte cells (Jurkat); assay: Methotrexate-induced apoptotic cell death of Jurkat cells; assay type: cell-based; settings: methotrexate and PACAP38 for 24 hours, same dose range
Procedure: as §3, with “Jurkat cells were cultured in RPMI 1640 medium supplemented with 10% heat-inactivated fetal calf serum. The cells were treated with PACAP38 for 24 hours. The […]” for “inhibitory”, “error” for “deviation”, “eight” for “six”
as §4

[14] = test system: Jurkat human T-lymphocyte cells; assay: Inhibition by cyclosporine A of IL-2 secretion from Jurkat cells, enhancement by peptides; assay type: cell-based; settings: peptide added on top of cyclosporine, 24 hours
Procedure: The Jurkat human T-lymphocyte cells were cultured in RPMI 1640 medium supplemented with 10% heat-inactivated fetal calf serum. The Jurkat cells were stimulated with mitogens (1 mg/ml of PHA and 50 ng/ml of PMA). […] Each value represents the mean plus/minus the standard error of eight determinations. **p<0.01 and *p<0.05 compared to the cells treated only with the mitogens.
However, when Jurkat cells were stimulated with PHA and PMA, large quantities of interleukin-2 could be detected in the medium (FIG. 11).

[15] = test system: NCI-H838 human non-small cell lung cancer cells; settings: nude mice; cited from earlier work
[16] = test system: PC-3 human prostate cancer cells; settings: nude mice; cited from earlier work
[17] = test system: MCF-7 human breast cancer cells; settings: nude mice; cited from earlier work
[18] = rat, in vivo, iv; cited from earlier work

## PACAP38
[1]; tacrolimus-treated HK-2 cells
  potency as a renoprotectant relative to VIP: significantly more potent than VIP
[1]
  loss of viable human renal proximal tubule epithelial cells caused by tacrolimus: significant dose-dependent reduction
[2]
  reduction in the number of CA1 pyramidal cells at day 7 post-occlusion: significantly reversed
[3]; continuous i.v. infusion beginning 4 hours after start of 2 h MCAO
  reduction of the infarct volume: approximately 51%
[3]; continuous i.v. infusion beginning 8 hours after start of 2 h MCAO
  reduction of the infarct volume: ~22%
[3]; continuous i.v. infusion beginning 12 hours after start of 2 h MCAO
  reduction of the infarct volume: ~12%
[4]
  relative potency of PACAP38 and VIP on interleukin-2 secretion: appeared to be equipotent
  mitogen-induced secretion of interleukin-2 into the medium: large significant inhibition
[5]; highest dose 10^−6 M
  inhibition of proliferation: more than 50%
[5]
  rate of proliferation of the human B-lymphocyte cell line: significant dose-dependent inhibition
[6]
  restoration of the cell monolayer, confluence: 70-80%
[6]; versus cyclosporine A alone
  number of grossly elongated and filopodia-formatted cells: marked reduction
[7]; highest dose 10^−6 M
  sirolimus-induced apoptotic cell death: almost completely prevented
[7]; varying concentrations of PACAP38
  sirolimus-induced apoptotic cell death: significant dose-dependent reduction
[8]
  cyclosporine A-induced cell death: almost completely prevented
[9]
  toxic side-effects of methotrexate on human renal proximal tubule epithelial cells (apoptotic cell death): potently inhibits the toxic side-effects of methotrexate
[10]
  increase in TGF-β1 in the kidney: significantly reduced the increases
  increase in serum creatinine: significantly reduced the increases
[11]; highest dose 10^−5 M
  inhibition of proliferation of Jurkat cells: more than 50%
[11]
  rate of proliferation of the human T-lymphocyte cell line: significant dose-dependent inhibition
[12]
  cyclosporine A-induced secretion of TGF-β1 into the medium: almost completely prevented the secretion of TGF-β1
[13]
  killing of human T lymphocyte cells by methotrexate (apoptotic cell death): potently stimulates the killing
[14]
  cyclosporine-induced inhibition of interleukin-2 secretion: small dose-dependent enhancement

## VIP (HSDAVFTDNYTRLRKQMAVKKYLNSILN-NH2; listed as Homo sapiens)
[1]
  loss of viable human renal proximal tubule epithelial cells caused by tacrolimus: significant dose-dependent reduction
[4]
  mitogen-induced secretion of interleukin-2 into the medium: large significant inhibition
[11]
  rate of proliferation of the human T-lymphocyte cell line: significant dose-dependent inhibition
[14]
  cyclosporine-induced inhibition of interleukin-2 secretion: small dose-dependent enhancement

## PACAP(6-38) (FTDSYSRYRKQMAVKKYLAAVLGKRYKQRVKNK; ends and bridges not checked; UniProt P18509 137-169, looked up, fragment) [a PACAP/VIP receptor antagonist]
[15]
  growth of xenografts: inhibited the growth
[16]
  growth of xenografts: inhibited the growth
[17]
  growth of xenografts: inhibited the growth

## [^125I]-PACAP38
[18]
  half-life in the bloodstream: 5 to 6 min

## [Ala^16,Ala^17,D-Lys^38]PACAP38 (HSDGIFTDSYSRYRKAAAVKKYLAAVLGKRYKQRVKN[dK]; ends and bridges not checked)
[1]
  loss of viable human renal proximal tubule epithelial cells caused by tacrolimus: significant dose-dependent reduction

## [D-Ser^2,Lys^38-palmitoyl]PACAP38 (H[dS]DGIFTDSYSRYRKQMAVKKYLAAVLGKRYKQRVKNK(Palmitoyl); not fully specified (C-terminus))
[1]
  loss of viable human renal proximal tubule epithelial cells caused by tacrolimus: significant dose-dependent reduction

## [Lys^34]PACAP38 (HSDGIFTDSYSRYRKQMAVKKYLAAVLGKRYKQKVKNK; ends and bridges not checked)
[5]
  rate of proliferation of the human B-lymphocyte cell line: significant dose-dependent inhibition

## [Aib^2]PACAP38 (H[Aib]DGIFTDSYSRYRKQMAVKKYLAAVLGKRYKQRVKNK; ends and bridges not checked)
[5]
  rate of proliferation of the human B-lymphocyte cell line: significant dose-dependent inhibition
[11]
  rate of proliferation of the human T-lymphocyte cell line: significant dose-dependent inhibition

## [Ala^22]PACAP38 (HSDGIFTDSYSRYRKQMAVKKALAAVLGKRYKQRVKNK; ends and bridges not checked)
[5]
  rate of proliferation of the human B-lymphocyte cell line: significant dose-dependent inhibition

## CO[C@H]1C[C@@H]2CC[C@@H](C)[C@@](O)(O2)C(=O)C(=O)N2CCCC[C@H]2C(=O)O[C@H]([C@H](C)C[C@@H]2CC[C@@H](O)[C@H](OC)C2)CC(=O)[C@H](C)/C=C(\C)[C@@H](O)[C@@H](OC)C(=O)[C@H](C)C[C@H](C)/C=C/C=C/C=C/1C [sirolimus, reference compound]
[7]; 100 ng/ml sirolimus for 24 hours, HK-2 cells
  apoptotic cell death: large significant increase in apoptotic cell death

## PACAP27 (HSDGIFTDSYSRYRKQMAVKKYLAAVL-NH2; listed as Homo sapiens)
[5]
  rate of proliferation of the human B-lymphocyte cell line: significant dose-dependent inhibition

## [D-Ser^2]PACAP38 (H[dS]DGIFTDSYSRYRKQMAVKKYLAAVLGKRYKQRVKNK; not fully specified (C-terminus))
[1]
  loss of viable human renal proximal tubule epithelial cells caused by tacrolimus: significant dose-dependent reduction
[4]
  mitogen-induced secretion of interleukin-2 into the medium: large significant inhibition
[11]
  rate of proliferation of the human T-lymphocyte cell line: significant dose-dependent inhibition
[14]
  cyclosporine-induced inhibition of interleukin-2 secretion: small dose-dependent enhancement
